Source: patent US20100317647A1 (priority 2009, published 2010)
pIC50: −log10 of the molar value.

Biological target: human Cat S (Homo sapiens, UniProt P25774)
Assay: Cathepsin enzyme inhibition assay (fluorogenic peptide substrate cleavage)
Assay type: biochemical
Details: human Cat S 1 nM; substrate Z-Val-Val-Arg-AMC 20 μM; pH 6.5; fluorescence over 20 minutes
How it was run: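 IC50 values derived from fluorescence increase (ex 360 nm, em 465 nm) monitored for 20 minutes after substrate addition. Enzyme held at 1 nM with 20 μM Z-Val-Val-Arg-AMC, in pH 6.5 potassium phosphate buffer containing DTT, EDTA and Triton X-100.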

Sequence of human Cat S (P25774 115-331): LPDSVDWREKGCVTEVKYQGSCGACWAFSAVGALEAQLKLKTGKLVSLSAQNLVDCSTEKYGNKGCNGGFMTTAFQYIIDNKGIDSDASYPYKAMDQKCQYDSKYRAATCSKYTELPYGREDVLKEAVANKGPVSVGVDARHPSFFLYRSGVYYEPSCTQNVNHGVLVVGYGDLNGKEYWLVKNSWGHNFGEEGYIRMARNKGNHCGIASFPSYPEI

Row | SMILES | pIC50
1 | CO[C@@H]1C[C@H](S(=O)(=O)c2ccc(N3CCN(CC(F)(F)F)CC3)cc2C(F)(F)F)C[C@H]1C(=O)NC1(C#N)CC1 (racemic) [Example 193, (1R,2R,4R) and (1S,2S,4S)-2-Methoxy-4-{4-[4-(2,2,2-trifluoro-ethyl)-piperazin-1-yl]-2-trifluoromethyl-benzenesulfonyl}-cyclopentanecarboxylic acid (1-cyano-cyclopropyl)-amide] | 8.78
2 | CO[C@@H]1C[C@H](S(=O)(=O)c2ccc(-c3ccnc(C(F)(F)F)c3)cc2C(F)(F)F)C[C@H]1C(=O)NC1(C#N)CC1 (racemic) [Example 109, (1R,2R,4R) and (1S,2S,4S)-2-Methoxy-4-[2-trifluoromethyl-4-(2-trifluoromethyl-pyridin-4-yl)-benzenesulfonyl]-cyclopentanecarboxylic acid (1-cyano-cyclopropyl)-amide] | 9.40
3 | N#CC1(NC(=O)[C@@H]2C[C@@H](S(=O)(=O)c3ccccc3)C[C@H]2C(=O)N2[C@@H]3CC[C@H]2COC3)CC1 [Example 18, (1R,2R,4R)-4-Benzenesulfonyl-2-((1R,5S)-3-oxa-8-aza-bicyclo[3.2.1]octane-8-carbonyl)-cyclopentanecarboxylic acid (1-cyano-cyclopropyl)-amide] | 8.70
4 | N#CCNC(=O)[C@@H]1C[C@@H](S(=O)(=O)c2ccccc2)C[C@H]1C(=O)N1CCOCC1 [Example 1, (1R,2R,4R)-4-Benzenesulfonyl-2-(morpholine-4-carbonyl)-cyclopentanecarboxylic acid cyanomethyl-amide] | 9.22
5 | N#CC1(NC(=O)[C@@H]2C[C@@H](S(=O)(=O)c3ccc(F)cc3Cl)C[C@H]2COc2cccnc2)CC1 [Example 165, (1R,2R,4S)-4-(2-Chloro-4-fluoro-benzenesulfonyl)-2-(pyridin-3-yloxymethyl)-cyclopentanecarboxylic acid (1-cyano-cyclopropyl)-amide] | 8.17
6 | CNC(=O)[C@@H]1C[C@H](S(=O)(=O)c2ccccc2)C[C@H]1C(=O)NC1(C#N)CC1 [Example 29, (1R,2R,4S)-4-Benzenesulfonyl-cyclopentane-1,2-dicarboxylic acid 1-[(1-cyano-cyclopropyl)-amide]2-methylamide] | 7.14
7 | CO[C@@H]1C[C@H](S(=O)(=O)c2ccc(O[C@H](C)C(F)(F)F)cc2Cl)C[C@H]1C(=O)NC1(C#N)CC1 (racemic) [Example 60, (1R,2R,4R) and (1S,2S,4S)-4-[2-Chloro-4-((R/S)-2,2,2-trifluoro-1-methyl-ethoxy)-benzenesulfonyl]-2-methoxy-cyclopentanecarboxylic acid (1-cyano-cyclopropyl)-amide] | 7.58
8 | CO[C@@H]1C[C@H](S(=O)(=O)c2ccc(Br)cc2C(F)(F)F)C[C@H]1C(=O)NC1(C#N)CC1 (single isomer, unassigned) [Example 137] | 8.32
9 | N#CC1(NC(=O)C2CC(S(=O)(=O)c3ccc(OC4COC4)cc3C(F)(F)F)CC2C(=O)N2CC(F)(F)C2)CC1 (stereo not drawn) [Example 127, 2-(3,3-Difluoro-azetidine-1-carbonyl)-4-[4-(oxetan-3-yloxy)-2-trifluoromethyl-benzenesulfonyl]-cyclopentanecarboxylic acid (1-cyano-cyclopropyl)-amide] | 8.96
10 | N#CCNC(=O)[C@H]1CC[C@H](S(=O)(=O)c2ccc(F)cc2Cl)C1 (racemic) [Example 79, (1S,3S) and (1R,3R)-3-(2-Chloro-4-fluoro-benzenesulfonyl)-cyclopentanecarboxylic acid cyanomethyl-amide] | 6.17
11 | COCCOc1ccc(S(=O)(=O)[C@@H]2C[C@@H](C(=O)NC3(C#N)CC3)[C@H](C(=O)N3CC(F)(F)C3)C2)c(Cl)c1 [Example 168, (1R,2R,4R)-4-[2-Chloro-4-(2-methoxy-ethoxy)-benzenesulfonyl]-2-(3,3-difluoro-azetidine-1-carbonyl)-cyclopentanecarboxylic acid (1-cyano-cyclopropyl)-amide] | 8.90
12 | CN(C)C(=O)[C@@H]1C[C@H](S(=O)(=O)c2ccccc2)C[C@H]1C(=O)NC1(C#N)CC1 [Example 27, (1R,2R,4R)-4-Benzenesulfonyl-cyclopentane-1,2-dicarboxylic acid 1-[(1-cyano-cyclopropyl)-amide]2-dimethylamide] | 8.21
13 | N#CC1(NC(=O)[C@@H]2C[C@@H](S(=O)(=O)c3ccc(OCC(F)(F)F)cc3Cl)C[C@H]2C(=O)N2CCC(F)(F)C2)CC1 [Example 189, (1R,2R,4R)-4-[2-Chloro-4-(2,2,2-trifluoro-ethoxy)-benzenesulfonyl]-2-(3,3-difluoro-pyrrolidine-1-carbonyl)-cyclopentanecarboxylic acid (1-cyano-cyclopropyl)-amide] | 9.17
14 | COc1ccc(-c2ccc(S(=O)(=O)[C@H]3C[C@@H](OC)[C@H](C(=O)NC4(C#N)CC4)C3)c(C(F)(F)F)c2)cn1 (racemic) [Example 78, (1R,2R,4R) and (1S,2S,4S)-2-Methoxy-4-[4-(6-methoxy-pyridin-3-yl)-2-trifluoromethyl-benzenesulfonyl]-cyclopentanecarboxylic acid (1-cyano-cyclopropyl)-amide] | 9.52
15 | CCN1CCC(C#N)(NC(=O)[C@@H]2C[C@@H](S(=O)(=O)c3ccc(Cl)cc3Cl)C[C@H]2OCc2ccc(Cl)cc2)CC1 (racemic) [Example 240, (1R,2R,4R) and (1S,2S,4S)-2-(4-Chloro-benzyloxy)-4-(2,4-dichloro-benzenesulfonyl)-cyclopentanecarboxylic acid (4-cyano-1-ethyl-piperidin-4-yl)-amide] | 7.59
16 | N#CC1(NC(=O)[C@H]2CC[C@H](S(=O)(=O)c3ccc(OCC(F)(F)F)cc3Cl)C2)CC1 (single isomer, unassigned) [Example 98] | 6.80
17 | CO[C@@H]1C[C@H](S(=O)(=O)c2ccc(-c3ccnc(C)c3)cc2C(F)(F)F)C[C@H]1C(=O)NC1(C#N)CC1 [Example 139, (1R,2R,4R)-2-Methoxy-4-[4-(2-methyl-pyridin-4-yl)-2-trifluoromethyl-benzenesulfonyl]-cyclopentanecarboxylic acid (1-cyano-cyclopropyl)-amide] | 9.52
18 | CO[C@@H]1C[C@H](S(=O)(=O)c2ccc(-c3ccnc(C)c3)cc2C(F)(F)F)C[C@H]1C(=O)NC1(C#N)CC1 (racemic) [Example 77, (1R,2R,4R) and (1S,2S,4S)-2-Methoxy-4-[4-(2-methyl-pyridin-4-yl)-2-trifluoromethyl-benzenesulfonyl]-cyclopentanecarboxylic acid (1-cyano-cyclopropyl)-amide] | 9.22
19 | N#CC1(NC(=O)[C@@H]2C[C@@H](S(=O)(=O)c3ccc(C4CC4)cc3C(F)(F)F)C[C@H]2C(=O)N2CC(F)(F)C2)CC1 [Example 125, (1R,2R,4R)-4-(4-Cyclopropyl-2-trifluoromethyl-benzenesulfonyl)-2-(3,3-difluoro-azetidine-1-carbonyl)-cyclopentanecarboxylic acid (1-cyano-cyclopropyl)-amide] | 9.52
20 | N#CC1(NC(=O)[C@@H]2C[C@@H](S(=O)(=O)c3ccccc3Cl)C[C@H]2COc2ccc(Cl)cc2)CC1 (single isomer, unassigned) [Example 70] | 8.47
21 | CN1CCN(C(=O)[C@@H]2C[C@H](S(=O)(=O)c3ccccc3)C[C@H]2C(=O)NC2(C#N)CC2)CC1 [Example 26, (1R,2R,4R)-4-Benzenesulfonyl-2-(4-methyl-piperazine-1-carbonyl)-cyclopentanecarboxylic acid (1-cyano-cyclopropyl)-amide] | 8.82
22 | CO[C@@H]1C[C@H](S(=O)(=O)c2ccc(-c3ccccc3)cc2C(F)(F)F)C[C@H]1C(=O)NC1(C#N)CC1 (racemic) [Example 171, (1R,2R,4R) and (1S,2S,4S)-2-Methoxy-4-(3-trifluoromethyl-biphenyl-4-sulfonyl)-cyclopentanecarboxylic acid (1-cyano-cyclopropyl)-amide] | 8.92
23 | CO[C@@H]1C[C@H](S(=O)(=O)c2ccc(-c3cncc(S(C)(=O)=O)c3)cc2C(F)(F)F)C[C@H]1C(=O)NC1(C#N)CC1 (racemic) [Example 83, (1R,2R,4R) and (1S,2S,4S)-4-[4-(5-Methanesulfonyl-pyridin-3-yl)-2-trifluoromethyl-benzenesulfonyl]-2-methoxy-cyclopentanecarboxylic acid (1-cyano-cyclopropyl)-amide] | 9.70
24 | Cc1cc(Cl)ccc1S(=O)(=O)[C@@H]1C[C@@H](C(=O)NC2(C#N)CCN(C)CC2)[C@H](C(=O)N2CCOCC2)C1 [Example 45, (1R,2R,4R)-4-(4-Chloro-2-methyl-benzenesulfonyl)-2-(morpholine-4-carbonyl)-cyclopentanecarboxylic acid (4-cyano-1-methyl-piperidin-4-yl)-amide formiate] | 10.00
25 | Cn1nccc1-c1ccc(S(=O)(=O)[C@@H]2C[C@@H](C(=O)NC3(C#N)CC3)[C@H](C(=O)N3CCC(F)(F)C3)C2)c(Cl)c1 [Example 196, (1R,2R,4R)-4-[2-Chloro-4-(2-methyl-2H-pyrazol-3-yl)-benzenesulfonyl]-2-(3,3-difluoro-pyrrolidine-1-carbonyl)-cyclopentanecarboxylic acid (1-cyano-cyclopropyl)-amide] | 9.67
26 | Cc1cccc(S(=O)(=O)[C@@H]2C[C@@H](C(=O)NCC#N)[C@H](C(=O)N3CCOCC3)C2)c1 [Example 5, (1R,2R,4R)-2-(Morpholine-4-carbonyl)-4-(toluene-3-sulfonyl)-cyclopentanecarboxylic acid cyanomethyl-amide] | 9.22
27 | CCO[C@@H]1C[C@H](S(=O)(=O)c2ccc(-c3cnn(C)c3)cc2C(F)(F)F)C[C@H]1C(=O)NC1(C#N)CC1 (racemic) [Example 116, (1R,2R,4R) and (1S,2S,4S)-2-Ethoxy-4-[4-(1-methyl-1H-pyrazol-4-yl)-2-trifluoromethyl-benzenesulfonyl]-cyclopentanecarboxylic acid (1-cyano-cyclopropyl)-amide] | 9.52
